Source: BindingDB's records for patent US10934285 (Novartis, 2021)

Target: T1, Tyrosine-protein phosphatase non-receptor type 11 (Homo sapiens, UniProt Q06124)
T1 sequence (Q06124 whole entry): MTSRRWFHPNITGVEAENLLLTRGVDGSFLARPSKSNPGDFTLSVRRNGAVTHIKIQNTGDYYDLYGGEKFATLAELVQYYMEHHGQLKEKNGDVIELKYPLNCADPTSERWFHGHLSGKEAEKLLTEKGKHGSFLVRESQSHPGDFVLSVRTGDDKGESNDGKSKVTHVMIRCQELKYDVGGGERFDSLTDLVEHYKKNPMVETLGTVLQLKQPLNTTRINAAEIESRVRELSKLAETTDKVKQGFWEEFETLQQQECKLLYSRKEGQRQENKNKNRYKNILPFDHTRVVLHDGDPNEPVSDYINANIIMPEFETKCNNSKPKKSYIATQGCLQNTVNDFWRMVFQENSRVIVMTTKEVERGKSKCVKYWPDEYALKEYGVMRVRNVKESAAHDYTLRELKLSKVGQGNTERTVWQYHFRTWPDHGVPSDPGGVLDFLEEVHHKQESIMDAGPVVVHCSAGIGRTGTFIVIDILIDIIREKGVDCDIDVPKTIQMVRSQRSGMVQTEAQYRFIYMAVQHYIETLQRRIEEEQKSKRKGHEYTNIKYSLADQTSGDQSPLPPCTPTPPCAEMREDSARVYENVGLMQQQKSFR
Assay: Inhibition Assay
Description: After 30-60 minutes incubation at 25° C., the surrogate substrate DiFMUP (Invitrogen, cat #D6567) was added to the reaction and incubated at 25° C. for 30 minutes. The reaction was then quenched by the addition of 5 μl of a 160 μM solution of bpV(Phen) (Enzo Life Sciences cat #ALX-270-204). The fluorescence signal was monitored using a microplate reader (Envision, Perki-Elmer) using excitation and emission wavelengths of 340 nm and 450 nm, respectively. The inhibitor dose response curves were analyzed using normalized IC50 regression curve fitting with control based normalization.

IC50 [nM] | Compound
15 | CC1(CN)CCN(c2nnc(Sc3cccc(NC(=O)c4c(O)n5c(ccc6ccccc65)nc4=O)c3Cl)c(N)n2)CC1 [US10934285, Example 38]
5380 | CN(c1cnc(Sc2cccc(NC(=O)c3c(O)nc4n(c3=O)CCCC4)c2Cl)c(N)n1)C1CC(C)(C)NC(C)(C)C1 [US10934285, Example 21]
